Reference: patent US6670448B2, “Peptide antagonists of zonulin and methods for use of the same” (University of Maryland, Baltimore, priority 1998, dated 2003)
No end group written: not given here.

Tested on: rabbit ileum
Assay: Peptide antagonists FZI/0 and FZI/1 on rabbit ileum in Ussing chambers, alone or before ZOT or zonulin
Assay type: cell-based
Experimental: Next, Ussing chamber assays were carried out using ileum from 2-3 kg adult male New Zealand white rabbits, which were sacrificed by cervical dislocation. A 20 cm segment of ileum was removed, rinsed free of the intestinal content, opened along the mesenteric border, and stripped of muscular and serosal layers. Eight sheets of mucosa so prepared were then mounted in lucite Ussing chambers (1.12 cm^2 opening), connected to a voltage clamp apparatus (EVC 4000 WPI, Saratosa, Fla.), and bathed with freshly prepared Ringer's solution comprising 53 mM NaCl, 5.0 mM KCl, 30.5 mM mannitol, 1.69 mM Na2HPO4, 0.3 mM NaH2PO4, 1.25 mM CaCl2, 1.1 mM MgCl2, and 25 mM NaHCO3. The bathing solution was maintained at 37° C. with water-jacketed reservoirs connected to a constant-temperature circulating pump and gassed with 95% O2/5% CO2.
100 μl of zonulin purified from rabbit intestine was added to the mucosal side. The potential difference (PD) was measured every 10 min, and the short-circuit current (Isc) and tissue resistance (Rt) were calculated as described by Fasano et al, supra. Because of tissue variability, data were calculated as ΔRt (Rt at time x)−(Rt at time 0).
Next, rabbit ileum mounted in Ussing chambers as described above, were exposed to 100 μg of FZI/0 (SEQ ID NO:15), 100 μg ofFZI/1 (SEQ ID NO:34), 1.0 μg of 6xHis-ZOT (obtained as described in Example 1), 1.0 μg of zonulini (obtained as described in Example 3), or 1.0 μg of zonulinh (obtained as described in Example 3) alone; or pre-exposed for 20 min to 100 μg of FZI/0 or FZI/1, at which time 1.0 μg of 6xHis-ZOT, 1.0 μg of zonulini, or 1.0 μg of zonulinh, was added. ΔRt was then calculated as described above.

Sequence	change in Rt as compared to the negative control, peptide alone (100 μg peptide alone, not significant, FIG. 8 closed bar)	decrease of the effect of ZOT on Rt (pre-treatment 20 min with 100 μg peptide, then 1.0 μg 6xHis-ZOT, FIG. 8)	decrease of the effect of zonulinh on Rt (pre-treatment 20 min with 100 μg peptide, then 1.0 μg zonulinh, FIG. 8)	decrease of the effect of zonulini on Rt (pre-treatment 20 min with 100 μg peptide, then 1.0 μg zonulini, FIG. 8)	inhibitory effect on the action of ZOT, zonulini and zonulinh on Rt (pre-exposure 20 min to 100 μg peptide, FIG. 8 shaded bar)
GGVLVQPG [FZI/0, synthetic octapeptide corresponding to amino acid residues 8-15 of human fetal zonulini]	0.5%	75%	100%	97%	
VGVLGRPG [FZI/1, second synthetic peptide with positions 8, 12 and 13 changed to the residues of zonulinb (Val, Gly, Arg)]					completely ablated
